Source: paper PMC3265452 (PLoS Neglected Tropical Diseases, 2012)
Where a name gives a salt, the structure may show the parent alone.

The compounds below were run against AaDOP2 (Aedes aegypti, UniProt H6D5H2) (assay: AaDOP2 antagonist screen of the LOPAC1280 library (HEK-CRELuc-Aadop2 cells, luminescence)). Conditions: not given.
Format: cell-based

Sequence of AaDOP2 (H6D5H2 1-476): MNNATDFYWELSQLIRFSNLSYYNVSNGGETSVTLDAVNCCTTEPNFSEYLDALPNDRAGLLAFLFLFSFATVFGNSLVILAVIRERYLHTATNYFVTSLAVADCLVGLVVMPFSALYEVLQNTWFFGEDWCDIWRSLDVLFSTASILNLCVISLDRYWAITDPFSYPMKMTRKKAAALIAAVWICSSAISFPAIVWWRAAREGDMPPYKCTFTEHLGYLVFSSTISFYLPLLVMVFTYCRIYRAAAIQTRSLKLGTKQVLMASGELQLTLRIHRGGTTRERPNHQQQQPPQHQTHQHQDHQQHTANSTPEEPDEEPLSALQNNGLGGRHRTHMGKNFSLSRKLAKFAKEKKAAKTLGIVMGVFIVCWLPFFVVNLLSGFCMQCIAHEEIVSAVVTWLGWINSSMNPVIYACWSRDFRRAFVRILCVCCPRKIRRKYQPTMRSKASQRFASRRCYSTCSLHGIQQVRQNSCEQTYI

Point of comparison: `N#Cc1c(-c2ccccc2)no[n+]1[O-]` [Compound 925, 4-Phenyl-3-furoxancarbonitrile], “Compound effect (percent receptor signaling in presence of test compound, relative lux units relative to the SCH23390 control)” value 93. Against it:
- CC(CCc1ccccc1)NC(C)C(O)c1ccc(O)cc1 (stereo not drawn) [Compound 884, Nylidrin hydrochloride] — lower, 86
- Cn1cnc2c(NC3CCCC3)ncnc21 [Compound 885, N6-Cyclopentyl-9-methyladenine] — higher, 105
- Oc1ccc2c3c1O[C@H]1c4oc5ccccc5c4C[C@@]4(O)[C@@H](C2)N(CC2CC2)CC[C@]314 [Compound 886, Naltriben methanesulfonate] — higher, 102
- O=C(O)CCCCCCC1C(=O)NC(=O)N1CCC(O)C1CCCCC1 (stereo not drawn) [Compound 888, BW 245C] — higher, 120
- C=CCN1CC[C@]23c4c5ccc(O)c4O[C@H]2/C(=N/NC(=O)c2ccccc2)CC[C@@]3(O)[C@H]1C5 [Compound 889, Naloxone benzoylhydrazone] — higher, 101
- O=c1[nH]c2cc(C(F)(F)F)ccc2n1-c1cc(C(F)(F)F)ccc1O [Compound 890, NS-1619] — lower, 86
- C=CCN1CC[C@]23c4c5ccc(O)c4O[C@@H]2/C(=N/N=C2\CC[C@@]4(O)C6Cc7ccc(O)c8c7[C@@]4(CCN6CC=C)[C@@H]2O8)CC[C@@]3(O)C1C5.Cl.Cl [Compound 891, Naloxonazine dihydrochloride] — lower, 86
- O=c1onc2n1-c1cc(Br)ccc1OC2 [Compound 893, NS 2028] — higher, 98
- CCn1cc(C(=O)O)c(=O)c2cc3c(cc21)OCO3 [Compound 896, Oxolinic acid] — higher, 108
- Cn1cnc2c(NCc3ccccc3)nc(NCCO)nc21 [Compound 897, Olomoucine] — lower, 47
- CCCCCCCC/C=C\CCCCCCCC(=O)O [Compound 898, Oleic Acid] — higher, 95
- Cc1cc(C(C)(C)C)c(O)c(C)c1CC1=NCCN1 [Compound 899, Oxymetazoline hydrochloride] — lower, 84
- NC(=O)C(=O)O [Compound 900, Sodium Oxamate] — lower, 91
- CCN(CC)CC#CCOC(=O)C(O)(c1ccccc1)C1CCCCC1 (stereo not drawn) [Compound 901, Oxybutynin Chloride] — lower, 83
- NC(=O)CN1CC(O)CC1=O (stereo not drawn) [Compound 902, Oxiracetam] — higher, 101
- C[C@@H]1O[C@@H](O[C@H]2C[C@@H](O)[C@]3(CO)[C@H]4[C@H](O)C[C@]5(C)[C@@H](C6=CC(=O)OC6)CC[C@]5(O)[C@@H]4CC[C@]3(O)C2)[C@H](O)[C@H](O)[C@H]1O [Compound 903, Ouabain] — lower, 50
- O=c1onc2cnc3ccccc3n12 [Compound 904, ODQ] — higher, 98
- CC1COc2c(N3CCN(C)CC3)c(F)cc3c(=O)c(C(=O)O)cn1c23 (stereo not drawn) [Compound 907, Ofloxacin] — lower, 92
- O=C(O)/C=C/C(=O)O.O=C(O)/C=C/C(=O)O.O=C(O)/C=C/C(=O)O.O=C1CCCN1CC#CCN1CCCC1.O=C1CCCN1CC#CCN1CCCC1 [Compound 908, Oxotremorine sesquifumarate salt] — lower, 88
- O=c1[nH]c2ccccc2n1CCCN1CCN(C(c2ccccc2)c2ccccc2)CC1 [Compound 909, Oxatomide] — lower, 72
- Cn1cc(C2=C(c3ccc(Cl)cc3Cl)C(=O)NC2=O)c2ccccc21 [Compound 910, SB 216763] — lower, 80
- O=C(O)CCc1nc(-c2ccccc2)c(-c2ccccc2)o1 [Compound 911, Oxaprozin] — higher, 106
- C[N+](C)(C)CC#CCN1CCCC1=O [Compound 912, Oxotremorine methiodide] — higher, 99
- CC(=O)[C@H]1CC[C@H]2[C@@H]3CCC4=CC(=O)CC[C@]4(C)[C@H]3CC[C@]12C [Compound 914, Progesterone] — lower, 77
- CCCCCCCCCCCCCCCC(=O)NCCO [Compound 915, Palmitoylethanolamide] — lower, 89
- N=C(N)c1ccc(OCCCCCOc2ccc(C(=N)N)cc2)cc1 [Compound 917, Pentamidine isethionate] — lower, 87
- C=C1C(=O)O[C@H]2[C@H]1CC/C(C)=C/CC[C@@]1(C)O[C@@H]21 [Compound 919, Parthenolide] — lower, 74
- CC(C)NCC(O)COc1cccc2[nH]ccc12 (stereo not drawn) [Compound 920, Pindolol] — higher, 96
- CC(=O)CCCCn1c(=O)c2c(ncn2C)n(C)c1=O [Compound 926, Pentoxifylline] — higher, 119
- O=c1[nH]c2ccccc2n1C1CCN(CCCC(c2ccc(F)cc2)c2ccc(F)cc2)CC1 [Compound 927, Pimozide] — lower, 61
- CC(=O)O[C@H]1C[C@@H]2CC[C@@H]3[C@H](CC[C@@]4(C)[C@H]3C[C@H]([N+]3(C)CCCCC3)[C@@H]4OC(C)=O)[C@@]2(C)C[C@@H]1[N+]1(C)CCCCC1 [Compound 929, Pancuronium bromide] — higher, 96
- C[C@]12CC[C@@H](O)C[C@@H]1CC[C@@H]1[C@@H]2CC[C@]2(C)[C@@H](C(=O)CO)CC[C@@H]12 [Compound 930, 3-alpha,21-Dihydroxy-5-alpha-pregnan-20-one] — higher, 96
- Cc1ccc(=O)n(-c2ccccc2)c1 [Compound 931, Pirfenidone] — higher, 102
- Cn1c(=O)c2[nH]c(-c3ccccc3)nc2n(C)c1=O [Compound 932, 1,3-Dimethyl-8-phenylxanthine] — higher, 107
- N=C1Sc2ccccc2C2=NCCCN12 [Compound 935, PD 404,182] — higher, 101
- COc1ccc(Cc2nccc3cc(OC)c(OC)cc23)cc1OC [Compound 936, Papaverine hydrochloride] — lower, 92
- S=C(Nc1ccccc1)Nc1nccs1 [Compound 938, 1-Phenyl-3-(2-thiazolyl)-2-thiourea] — lower, 84
- C=C/C(C)=C/[C@@]1(C)SC(=O)C(C)=C1O [Compound 939, Thiolactomycin] — higher, 96
- N.N.[Cl][Pt][Cl] [Compound 940, Cisplatin] — lower, 88
- COc1cc([C@@H]2c3cc4c(cc3[C@H](O)[C@H]3COC(=O)[C@H]23)OCO4)cc(OC)c1OC [Compound 941, Podophyllotoxin] — lower, 84
- CC(C)[C@H](CO)Nc1nc(Nc2cccc(Cl)c2)c2ncn(C(C)C)c2n1 [Compound 942, Purvalanol A] — lower, 7

Same assay, conditions: 10 µM compound, 300 nM dopamine, 2 hr; hit = compound effect <20

Point of comparison: `CCCCCCCC/C=C\CCCCCCCC(=O)NCCO` [Compound 895, N-Oleoylethanolamine], “Compound effect (percent receptor signaling in presence of test compound, relative lux units relative to the SCH23390 control)” value 105%. Against it:
- COc1ccccc1N1CCN(CC(O)COc2cccc3ccccc23)CC1.Cl.Cl (stereo not drawn) [Compound 887, Naftopidil dihydrochloride] — lower, 79%
- NS(=O)(=O)c1cccc2c1c([N+](=O)[O-])cc1nc([O-])c([O-])nc12.[Na+].[Na+] [Compound 892, NBQX disodium] — lower, 95%
- N[C@@H](COP(=O)(O)O)C(=O)O [Compound 921, O-Phospho-L-serine] — lower, 102%
- CCCC(C(=O)OCCN(CC)CC)(c1ccccc1)c1ccccc1.Cl [Compound 923, SKF-525A hydrochloride] — lower, 88%
- O=C(O)CC[C@@H](C(=O)O)N1C(=O)c2ccccc2C1=O [Compound 928, L-Glutamic acid, N-phthaloyl-] — higher, 106%
- Cc1nc(N=Nc2cc(S(=O)(=O)[O-])c3cc([N+](=O)[O-])cc(S(=O)(=O)[O-])c3c2)c(COP(=O)([O-])[O-])c(C=O)c1O.[Na+].[Na+].[Na+].[Na+] [Compound 934, PPNDS tetrasodium] — higher, 106%
- C[N+]1(CCCCC[N+]2(C)CCCC2)CCCC1.O=C([O-])C(O)C(O)C(=O)O.O=C([O-])C(O)C(O)C(=O)O [Compound 937, Pentolinium di[L(+)-tartrate]] — lower, 94%

Same assay, conditions: read-out: % of the SCH23390 effect (percent inhibition of receptor response relative to the SCH23390 control)

`CC(C)[C@H](CO)Nc1nc(Nc2cccc(Cl)c2)c2ncn(C(C)C)c2n1` [Compound 942, Purvalanol A] gave an inhibition at 10 µM of 93%.
